Tests used:
Test in all cases: relative viability (nuclei count vs DMSO), 5 days (fraction); higher = more cells survive
Ispinesib + Olaparib = compound: Cc1ccc(C(=O)N(CCCN)[C@@H](c2nc3cc(Cl)ccc3c(=O)n2Cc2ccccc2)C(C)C)cc1 [Ispinesib] + O=C(c1cc(Cc2n[nH]c(=O)c3ccccc23)ccc1F)N1CCN(C(=O)C2CC2)CC1 [Olaparib] (partner 8 µM)
Procedure, shortened: (§1)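 Lung cancer cell lines in 1536-well plates were dosed by pin tool the day after seeding, either with one drug alone or with a fixed anchor-drug dose plus five library-drug doses (not always all listed) in √10 steps. After 5 days, cells were fixed and their nuclei stained in one step (final 0.05% Triton X-100, 1% formaldehyde, 1 ug/ml Hoechst), then counted on 4× images. Relative viability is the nuclei count in treated wells divided by that in vehicle wells. Values are medians of duplicate plates.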

Ispinesib + Foretinib = compound: Cc1ccc(C(=O)N(CCCN)[C@@H](c2nc3cc(Cl)ccc3c(=O)n2Cc2ccccc2)C(C)C)cc1 [Ispinesib] + COc1cc2c(Oc3ccc(NC(=O)C4(C(=O)Nc5ccc(F)cc5)CC4)cc3F)ccnc2cc1OCCCN1CCOCC1 [Foretinib] (partner 0.25 µM)
Procedure, shortened: as §1

Linsitinib + OSI-027 = compound: C[C@]1(O)C[C@@H](c2nc(-c3ccc4ccc(-c5ccccc5)nc4c3)c3c(N)nccn32)C1 [Linsitinib] + COc1cccc2cc(-c3nc([C@H]4CC[C@H](C(=O)O)CC4)n4ncnc(N)c34)[nH]c12 [OSI-027] (partner 0.5 µM)
Procedure, shortened: as §1

Linsitinib + Olaparib = compound: C[C@]1(O)C[C@@H](c2nc(-c3ccc4ccc(-c5ccccc5)nc4c3)c3c(N)nccn32)C1 [Linsitinib] + O=C(c1cc(Cc2n[nH]c(=O)c3ccccc23)ccc1F)N1CCN(C(=O)C2CC2)CC1 [Olaparib] (partner 8 µM)
Procedure, shortened: as §1

| Cell Line | relative viability (Ispinesib + Olaparib; first compound 0.001 µM) | relative viability (Ispinesib + Olaparib; first compound 0.003162 µM) | relative viability (Ispinesib + Olaparib; first compound 0.01 µM) | relative viability (Ispinesib + Olaparib; first compound 0.03162 µM) | relative viability (Ispinesib + Olaparib; first compound 0.1 µM) | relative viability (Ispinesib + Foretinib; first compound 0.001 µM) | relative viability (Ispinesib + Foretinib; first compound 0.003162 µM) | relative viability (Ispinesib + Foretinib; first compound 0.01 µM) | relative viability (Ispinesib + Foretinib; first compound 0.03162 µM) | relative viability (Ispinesib + Foretinib; first compound 0.1 µM) | relative viability (Linsitinib + OSI-027; first compound 0.01 µM) | relative viability (Linsitinib + OSI-027; first compound 0.03162 µM) | relative viability (Linsitinib + OSI-027; first compound 0.1 µM) | relative viability (Linsitinib + OSI-027; first compound 0.3162 µM) | relative viability (Linsitinib + OSI-027; first compound 1 µM) | relative viability (Linsitinib + Olaparib; first compound 0.01 µM) | relative viability (Linsitinib + Olaparib; first compound 0.03162 µM) | relative viability (Linsitinib + Olaparib; first compound 0.1 µM) | relative viability (Linsitinib + Olaparib; first compound 0.3162 µM) | relative viability (Linsitinib + Olaparib; first compound 1 µM) |
| --- | --- | --- | --- | --- | --- | --- | --- | --- | --- | --- | --- | --- | --- | --- | --- | --- | --- | --- | --- | --- |
| SK-MES-1 | 0.762 | 0.788 | 0.648 | 0.201 | 0.228 | 1.01 | 1.02 | 0.993 | 0.928 | 0.256 | 0.541 | 0.417 | 0.603 | 0.458 | 0.332 | 0.702 | 0.784 | 0.633 | 0.584 | 0.557 |
| NCI-H2087 | 0.708 | 0.694 | 0.801 | 0.545 | 0.145 | 1.17 | 1.14 | 1.45 | 0.901 | 0.209 | 0.691 | 0.582 | 0.463 | 0.362 | 0.182 | 0.572 | 0.639 | 0.609 | 0.51 | 0.47 |
| BEN | 1.03 | 1.35 | 1.13 | 0.832 | 0.782 | 0.674 | 0.96 | 0.686 | 0.342 | 0.201 | 0.346 | 0.27 | 0.258 |  | 0.249 | 1.03 | 0.987 | 1.17 | 0.686 | 0.953 |
| NCI-H3122 | 0.674 | 0.683 | 0.743 | 0.615 | 0.524 | 0.977 | 1.01 | 1.08 | 1.07 | 0.207 | 0.994 | 0.868 | 1.03 |  | 0.487 | 0.557 | 0.541 | 0.547 |  | 0.503 |
| LCLC-97TM1 | 0.396 | 0.544 | 0.406 | 0.318 | 0.216 | 0.928 | 0.948 | 0.933 | 0.856 | 0.56 | 0.52 | 0.515 | 0.335 | 0.248 | 0.234 | 0.504 | 0.548 | 0.353 | 0.257 | 0.437 |
| NCI-H2228 | 0.857 | 0.717 | 0.543 | 0.418 | 0.327 | 0.909 | 0.957 | 1.24 | 1 | 0.322 | 0.57 | 0.604 | 0.492 | 0.335 | 0.254 | 0.763 | 0.601 | 0.735 | 0.379 | 0.477 |
| COR-L23 | 0.31 | 0.34 | 0.308 | 0.226 | 0.138 | 0.959 | 1.03 | 1.16 | 0.412 | 0.146 | 0.626 | 0.968 | 0.804 | 0.52 | 0.509 | 0.375 | 0.292 | 0.346 | 0.299 | 0.29 |
| EMC-BAC-2 | 0.479 | 0.474 | 0.513 | 0.418 | 0.325 | 1.03 | 0.621 | 0.997 | 0.818 | 0.39 | 0.365 | 0.377 | 0.336 | 0.341 | 0.247 | 0.478 | 0.601 | 0.47 | 0.348 | 0.37 |
| NCI-H1944 | 0.436 | 0.454 | 0.491 | 0.418 | 0.406 | 0.797 | 0.908 | 0.9 | 0.627 | 0.677 | 0.427 | 0.474 | 0.393 | 0.315 | 0.217 | 0.437 | 0.521 | 0.4 | 0.333 | 0.382 |
| A-427 | 0.714 | 0.784 | 0.728 | 0.696 | 0.22 | 1.06 | 1.22 | 1.16 | 1.07 | 0.762 | 0.448 | 0.432 | 0.5 |  | 0.357 | 0.71 | 0.73 | 0.75 |  | 0.584 |
| NCI-H520 | 0.364 | 0.328 | 0.388 | 0.188 | 0.278 | 0.906 | 0.832 | 0.866 | 0.379 | 0.306 | 0.232 | 0.188 | 0.25 |  | 0.332 | 0.349 | 0.395 | 0.344 |  | 0.346 |
| NCI-H650 | 0.361 | 0.384 | 0.409 | 0.427 | 0.278 | 1.04 | 1.04 | 1.09 | 0.985 | 0.896 | 0.524 | 0.527 | 0.541 | 0.256 | 0.27 | 0.381 | 0.537 | 0.405 |  | 0.398 |
| COR-L 105 | 0.578 | 0.667 | 0.579 | 0.411 | 0.51 | 1.46 | 1.01 | 1.03 | 0.468 | 0.345 | 0.64 | 0.578 | 0.603 | 0.596 | 0.381 | 0.762 | 0.635 | 0.685 | 0.538 | 0.516 |
| NCI-H1755 | 0.909 | 0.928 | 0.963 | 0.987 | 0.759 | 0.909 | 0.987 | 1.01 | 0.874 | 0.737 | 0.681 | 0.77 | 0.737 | 0.356 | 0.487 | 0.893 | 0.887 | 0.9 | 0.699 | 0.753 |
| NCI-H2085 | 0.747 | 0.779 | 0.845 | 0.792 | 0.544 | 0.838 | 1.06 | 1.05 | 0.848 | 0.371 | 0.681 | 0.657 | 0.814 | 0.712 | 0.431 | 0.743 | 0.795 | 0.901 | 0.713 | 0.805 |
| NCI-H2023 | 0.543 | 0.553 | 0.511 | 0.271 | 0.232 | 0.966 | 0.755 | 0.807 | 0.457 | 0.168 | 0.425 | 0.215 | 0.358 | 0.212 | 0.12 | 0.468 | 0.39 | 0.617 | 0.378 | 0.453 |
| HOP-62 | 0.62 | 0.215 | 0.341 | 0.312 | 0.186 | 1.11 | 1.32 | 1.35 | 1.11 | 0.601 | 0.877 | 0.866 | 0.96 |  | 0.544 |  | 0.247 | 0.524 | 0.244 | 0.393 |
